Structures are written as SMILES.

Results on 15 molecules are retold here after EP4736861A1, “ORAL COMPOSITION CONTAINING INORGANIC POROUS BODY” (Tanabe Pharma Corporation, priority 2023, dated 2025).

The conditions of data set [1]: source not stated, cited from earlier work; for pKa of conjugate acid: basic concomitant drugs; for pKa: acidic concomitant drugs.
For data set [2] the following is noted: PBPK parameter; from Shimizu et al.; cited from earlier work.
Data set [3] is described as follows: PBPK model: construction and simulation of plasma concentration and urinary excretion. The following applies: PBPK parameter, mice.
From the text: For the construction, in vivo data from the vehicle group of the previously described "In Vivo Study Using a Choline-Load Fasted Mouse Model" and in vivo data from the single-dose PK study were used.
The following steps were applied for the construction of the PBPK model. • * The liver-to-plasma partition coefficient, blood cell-to-plasma partition coefficient, and plasma protein unbound fraction for d9-TMA and d9-TMAO were cited from the report by Shimizu et al.^1), assuming no species difference. • * The liver volume and hepatic blood flow rate were cited from the report by Yamashita et al.^2). • * Using the data from the single intravenous dose PK study of d9-TMA and d9-TMAO, the PK parameters for d9-TMA and d9-TMAO were estimated. […] For d9-TMA, assuming that adsorption equilibrium is reached in the gastrointestinal tract, it was considered to follow the formula: inhibition ratio of d9-TMA absorption from gastrointestinal tract = theoretical acid amount of unadsorbed zeolite / (water volume in the colon × dissociation constant + theoretical acid amount of unadsorbed zeolite), and the dissociation constant of zeolite and d9-TMA was calculated. The water volume in the colon was cited from the value in SimCYP (V23) manufactured by Certara.

For the molecule `CC12CC3CC(C)(C1)CC(N)(C3)C2` [Memantine], the “pKa of conjugate acid” value in data set [1] is given as 10.58.

Regarding `OCCN1C[C@H](O)[C@@H](O)[C@H](O)[C@H]1CO` [Miglitol], in data set [1], the “pKa of conjugate acid” value was 5.9.

For `[2H]C([2H])([2H])[N+]([O-])(C([2H])([2H])[2H])C([2H])([2H])[2H]` [d9-TMAO], in data set [2], the “blood cell-to-plasma partition coefficient” value was 0.845, the liver-to-plasma partition coefficient is given as 0.675 and the “plasma protein unbound fraction” value was 0.714. With `NC(=O)N1c2ccccc2C=Cc2ccccc21` [Carbamazepine], the “pKa of conjugate acid” value in data set [1] is 7.

On to `Cc1nccn1CC1CCc2c(c3ccccc3n2C)C1=O` (stereo not shown) [Ondansetron], for which the “pKa of conjugate acid” value in data set [1] was 7.4.

For the molecule `Clc1ccc(COC(Cn2ccnc2)c2ccc(Cl)cc2Cl)c(Cl)c1` (stereo not shown) [Miconazole], the “pKa of conjugate acid” value in data set [1] is 5.65.

Take `[2H]C([2H])([2H])N(C([2H])([2H])[2H])C([2H])([2H])[2H]` [d9-TMA]: in data set [2], the “blood cell-to-plasma partition coefficient” value is 0.719, the liver-to-plasma partition coefficient is recorded as 0.752 and the “plasma protein unbound fraction” value was 0.9.

On to `CCOC(=O)C1=C[C@@H](OC(CC)CC)[C@H](NC(C)=O)[C@@H](N)C1` [Oseltamivir], for which the “pKa of conjugate acid” value in data set [1] is listed as 7.75. With `Oc1ncnc2[nH]ncc12` [Allopurinol], in data set [1], the pKa is reported as 9.50. Take `[2H]C([2H])([2H])[N+](CCO)(C([2H])([2H])[2H])C([2H])([2H])[2H].[Cl-]` [d9-choline]: the “conversion ratio from d9-choline to d9-TMA” value in data set [3] was 0.9324. As for `Cc1ncc([N+](=O)[O-])n1CCO` [Metronidazole], in data set [1], the “pKa of conjugate acid” value is 2.6. `COc1ccccc1OCCNCC(O)COc1cccc2[nH]c3ccccc3c12` (stereo not shown) [Carvedilol]: the “pKa of conjugate acid” value in data set [1] is 7.8. Turning to `CC(=O)Nc1ccc(CC(=O)O)cc1` [Actarit], in data set [1], the pKa is given as 3.94. As to `CN1CCN2c3ncccc3Cc3ccccc3C2C1` (stereo not shown) [Mirtazapine], in data set [1], the “pKa of conjugate acid” value is listed as 3.71. On to `CCC[C@@H]1C[C@@H](C(=O)N[C@@H]([C@H]2O[C@H](SC)[C@H](O)[C@@H](O)[C@H]2O)[C@@H](C)O)N(C)C1` [Lincomycin], for which the “pKa of conjugate acid” value in data set [1] is 7.6.

In general, pKa refers to the pH at which an ionisable group is half protonated.
